≈ marks a conversion by molar mass, not a printed value. Where “and” joins values, the source holds several entries; their conditions need not be identical. Identical values can stand only once.
Experiments:
Type in all cases: cell-based
[1] = tested on: Escherichia coli DC-2; assay: In vitro agar dilution MIC, organism code SS; conditions: Table 1B, unit assumed
Method: (§1) Representative compounds of the present invention were assayed in vitro for antibacterial activity as follows: Twelve petri dishes containing successive aqueous dilutions of the test compound mixed with 10 mL of sterilized Brain Heart Infusion (BHI) agar (Difco 0418-01-5) were prepared. Each plate was inoculated with 1:100 (or 1:10 for slow-growing strains, such as Micrococcus and Streptococcus) dilutions of up to 32 different microorganisms, using a Steers replicator block. The inoculated plates were incubated at 35-37° C. for 20 to 24 hours. In addition, a control plate, using BHI agar containing no test compound, was prepared and incubated at the beginning and end of each test.
(§2) An additional plate containing a compound having known susceptibility patterns for the organisms being tested and belonging to the same antibiotic class as the test compound was also prepared and incubated as a further control, as well as to provide test-to-test comparability.
(§3) After incubation, each plate was visually inspected. The minimum inhibitory concentration (MIC) was defined as the lowest concentration of drug yielding no growth, a slight haze, or sparsely isolated colonies on the inoculum spot as compared to the growth control.

[2] = tested on: Staphylococcus aureus NCTC10649M; assay: In vitro agar dilution MIC, organism code EE; conditions: Table 1B, unit assumed
Method: as §1, §2, §3

[3] = tested on: Staphylococcus aureus ATCC 6538P; assay: In vitro agar dilution MIC, organism code AA; conditions: unit assumed
Method: as §1, §2, §3

[4] = tested on: Streptococcus pyogenes PIU 2548; assay: In vitro agar dilution MIC, organism code NN; conditions: unit assumed
Method: as §1, §2, §3

[5] = tested on: Escherichia coli JUHL; assay: In vitro agar dilution MIC, organism code QQ; conditions: Table 1B, in µg/mL (unit assumed)
Method: as §1, §2, §3

[6] = tested on: Mycobacterium smegmatis ATCC 114; assay: In vitro agar dilution MIC, organism code UU; conditions: Table 1B, in µg/mL (unit assumed)
Method: as §1, §2, §3

[7] = tested on: Staphylococcus aureus CMX 642A; assay: In vitro agar dilution MIC, organism code DD; conditions: Table 1B, unit assumed
Method: as §1, §2, §3

[8] = tested on: Candida albicans CCH 442; assay: In vitro agar dilution MIC, organism code TT; conditions: Table 1B, unit assumed
Method: as §1, §2, §3

[9] = tested on: Staphylococcus aureus CMX 553; assay: In vitro agar dilution MIC, organism code FF; conditions: Table 1B, unit assumed
Method: as §1, §2, §3

[10] = tested on: Streptococcus pneumoniae 5979; assay: In vitro agar dilution MIC, organism code ZZ; conditions: unit assumed
Method: as §1, §2, §3

[11] = tested on: Staphylococcus aureus 1775; assay: In vitro agar dilution MIC, organism code GG; conditions: Table 1B, unit assumed
Method: as §1, §2, §3

[12] = tested on: Micrococcus luteus ATCC 4698; assay: In vitro agar dilution MIC, organism code PP; conditions: Table 1B, in µg/mL (unit assumed)
Method: as §1, §2, §3

[13] = tested on: Micrococcus luteus ATCC 9341; assay: In vitro agar dilution MIC, organism code OO; conditions: Table 1B, unit assumed
Method: as §1, §2, §3

[14] = tested on: Streptococcus pneumoniae ATCC 6303; assay: In vitro agar dilution MIC, organism code XX; conditions: unit assumed
Method: as §1, §2, §3

[15] = tested on: Streptococcus pyogenes EES61; assay: In vitro agar dilution MIC, organism code LL; conditions: unit assumed
Method: as §1, §2, §3

[16] = tested on: Haemophilis influenzae DILL AMP R; assay: In vitro agar dilution MIC, organism code WW; conditions: unit assumed
Method: as §1, §2, §3

[17] = tested on: Streptococcus bovis A-5169; assay: In vitro agar dilution MIC, organism code JJ; conditions: Table 1B, unit assumed
Method: as §1, §2, §3

[18] = tested on: Nocardia asteroides ATCC 9970; assay: In vitro agar dilution MIC, organism code VV; conditions: Table 1B, in µg/mL (unit assumed)
Method: as §1
as §2, with “comparability. Erythromycin A was used for this purpose.” for “comparability.”
as §3

[19] = tested on: Streptococcus agalactiae CMX 508; assay: In vitro agar dilution MIC, organism code KK; conditions: Table 1B, unit assumed
Method: as §1, §2, §3

[20] = tested on: Staphylococcus epidermidis 3519; assay: In vitro agar dilution MIC, organism code HH; conditions: Table 1B, in µg/mL (unit assumed)
Method: as §1, §2, §3

[21] = tested on: Streptococcus pneumoniae 5649; assay: In vitro agar dilution MIC, organism code ZZA; conditions: unit assumed
Method: as §1, §2, §3

[22] = tested on: Streptococcus pneumoniae GYR 1171; assay: In vitro agar dilution MIC, organism code YY; conditions: Table 1B, unit assumed
Method: as §1, §2, §3

[23] = tested on: Enterococcus faecium ATCC 8043; assay: In vitro agar dilution MIC, organism code II; conditions: Table 1B, unit assumed
Method: as §1, §2, §3

[24] = tested on: Staphylococcus aureus A-5278; assay: In vitro agar dilution MIC, organism code CC; conditions: unit assumed
Method: as §1, §2, §3

[25] = tested on: Staphylococcus aureus A5177; assay: In vitro agar dilution MIC, organism code BB; conditions: in µg/mL (unit assumed)
Method: as §1, §2, §3

[26] = tested on: Escherichia coli SS; assay: In vitro agar dilution MIC, organism code RR; conditions: Table 1B, in µg/mL (unit assumed)
Method: as §1, §2, §3

[27] = tested on: Streptococcus pyogenes 930; assay: In vitro agar dilution MIC, organism code MM; conditions: unit assumed
Method: as §1, §2, §3

Row | Compound | MIC [1] [µg/mL] | MIC [2] [µg/mL] | MIC ([3]; Table 1B) [µg/mL] | MIC [5] | MIC [6] | MIC [7] [µg/mL] | MIC [8] [µg/mL] | MIC [9] [µg/mL] | MIC [11] [µg/mL] | MIC [12] | MIC [13] [µg/mL] | MIC ([14]; Table 1B) [µg/mL] | MIC ([15]; Table 1B) [µg/mL] | MIC ([16]; Table 1B) [µg/mL] | MIC [17] [µg/mL] | MIC [18] | MIC [19] [µg/mL] | MIC [20] | MIC ([21]; Table 1B) [µg/mL] | MIC [22] [µg/mL] | further results
1 | CC[C@H]1OC(=O)[C@@](C)(F)C(=O)[C@H](C)[C@@H](O[C@@H]2O[C@H](C)C[C@H](N(C)C)[C@H]2O)[C@](C)(OC/C=C/c2cnc3ccc(CS(N)(=O)=O)cc3c2)C[C@@H](C)C(=O)[C@H](C)[C@H]2NC(=O)O[C@@]21C [Example 14] | 100 (≈ 114 µM) | 0.1 (≈ 0.114 µM) | 0.05 (≈ 0.057 µM) | 50 | 3.1 | 0.1 (≈ 0.114 µM) | > 100 | 0.1 (≈ 0.114 µM) | > 100 | 0.2 | 0.01 (≈ 0.0114 µM) | ≤ 0.004 | 0.01 (≈ 0.0114 µM) | 2 (≈ 2.28 µM) | ≤ 0.005 | 0.1 | 0.01 (≈ 0.0114 µM) | 0.1 | 0.25 (≈ 0.285 µM) | ≤ 0.004 | MIC ([4]; Table 1B): 0.2 µg/mL (≈ 0.228 µM); MIC ([10]; Table 1B): 2 µg/mL (≈ 2.28 µM); MIC [23]: 0.1 µg/mL (≈ 0.114 µM); MIC ([24]; Table 1B): > 100 µg/mL; MIC ([25]; Table 1B): 0.1; MIC [26]: 0.1
2 | CC[C@H]1OC(=O)[C@H](C)C(=O)[C@H](C)[C@@H](O[C@@H]2O[C@H](C)C[C@H](N(C)C)[C@H]2O)[C@](C)(OC/C=C/c2ccccc2)C[C@@H](C)C(=O)[C@H](C)[C@H]2NC(=O)O[C@@]21C [Standard B, reference compound] | – | – | – | – | – | – | – | – | – | – | – | – | – | – | – | – | – | – | – | – | MIC ([4]; Table 1D): 0.25 µg/mL (≈ 0.35 µM); MIC ([10]; Table 1D): 128 µg/mL (≈ 179 µM); MIC ([14]; Table 1D): 0.03 µg/mL (≈ 0.042 µM); MIC ([27]; Table 1D): 64 µg/mL (≈ 89.5 µM); MIC ([15]; Table 1D): 0.03 µg/mL (≈ 0.042 µM); MIC ([16]; Table 1D): 4 µg/mL (≈ 5.6 µM); MIC ([21]; Table 1D): 0.25 µg/mL (≈ 0.35 µM)
3 | CC[C@H]1OC(=O)[C@H](C)[C@@H](O[C@H]2C[C@@](C)(OC)[C@@H](O)[C@H](C)O2)[C@H](C)[C@@H](O[C@@H]2O[C@H](C)C[C@H](N(C)C)[C@H]2O)[C@](C)(O)C[C@@H](C)C(=O)[C@H](C)[C@@H](O)[C@]1(C)O [Ery. A, Erythromycin A, reference compound] | > 100 | 0.39 (≈ 0.531 µM) | 0.2 (≈ 0.273 µM) | > 100 and 50 | 3.1 and 6.2 | 0.39 (≈ 0.531 µM) | > 100 | 0.39 (≈ 0.531 µM) | > 100 | 0.2 and 0.39 | 0.02 (≈ 0.0273 µM) | 0.06 (≈ 0.0818 µM) | 0.02 (≈ 0.0273 µM) | 4 (≈ 5.45 µM) | 0.02 (≈ 0.0273 µM) | 0.1 and 0.05 | 0.05 (≈ 0.0681 µM) | 0.39 and 0.2 | 16 (≈ 21.8 µM) | 0.06 (≈ 0.0818 µM) | MIC ([27]; Table 1B): > 100 µg/mL; MIC [23]: 0.05 µg/mL (≈ 0.0681 µM); MIC ([24]; Table 1B): > 100 µg/mL; MIC ([25]; Table 1B): 3.1 and 6.2; MIC [26]: 0.78 and 0.39
4 | CC[C@H]1OC(=O)[C@H](C)C(=O)[C@H](C)[C@@H](O[C@@H]2O[C@H](C)C[C@H](N(C)C)[C@H]2O)[C@](C)(OC/C=C/c2ccc3nccnc3c2)C[C@@H](C)C(=O)[C@H](C)[C@H]2NC(=O)O[C@@]21C [Standard C, reference compound] | – | – | – | – | – | – | – | – | – | – | – | – | – | – | – | – | – | – | – | – | MIC ([4]; Table 1D): 0.25 µg/mL (≈ 0.326 µM); MIC ([10]; Table 1D): 64 µg/mL (≈ 83.4 µM); MIC ([14]; Table 1D): 0.015 µg/mL (≈ 0.0196 µM); MIC ([27]; Table 1D): 1 µg/mL (≈ 1.3 µM); MIC ([15]; Table 1D): 0.03 µg/mL (≈ 0.0391 µM); MIC ([16]; Table 1D): 2 µg/mL (≈ 2.61 µM); MIC ([21]; Table 1D): 0.5 µg/mL (≈ 0.652 µM)
5 | CC[C@H]1OC(=O)[C@H](C)C(=O)[C@H](C)[C@@H](O[C@@H]2O[C@H](C)C[C@H](N(C)C)[C@H]2O)[C@](C)(OC)C[C@@H](C)C2=NCCN3C(=O)O[C@@]1(C)[C@H]3[C@H]2C [Standard (X is H), reference compound] | – | – | – | – | – | – | – | – | – | – | – | – | – | – | – | – | – | – | – | – | MIC ([3]; Table 1C): 0.2 µg/mL (≈ 0.314 µM); MIC ([4]; Table 1C): 0.39 µg/mL (≈ 0.611 µM); MIC ([10]; Table 1C): > 128 µg/mL; MIC ([14]; Table 1C): 0.06 µg/mL (≈ 0.0941 µM); MIC ([27]; Table 1C): > 100 µg/mL; MIC ([15]; Table 1C): 0.02 µg/mL (≈ 0.0314 µM); MIC ([16]; Table 1C): 4 µg/mL (≈ 6.27 µM); MIC ([21]; Table 1C): 0.5 µg/mL (≈ 0.784 µM); MIC ([24]; Table 1C): > 100 µg/mL; MIC ([25]; Table 1C): 0.2

From US6124269A, “2-Halo-6-O-substituted ketolide derivatives” (priority 1998, dated 2000)
